Assay results reported in US8440710B2, “HSL inhibitors useful in the treatment of diabetes” (Hoffmann-La Roche Inc., priority 2009, dated 2013).

Target: T1, human HSL (Homo sapiens, UniProt Q05469)
T1 construct: generate a full length human HSL ORF with a 3′-His6 tag; made in house; host or cells: High 5 insect cells (baculovirus, pFast-BAC)
T1 sequence (Q05469 1-1076): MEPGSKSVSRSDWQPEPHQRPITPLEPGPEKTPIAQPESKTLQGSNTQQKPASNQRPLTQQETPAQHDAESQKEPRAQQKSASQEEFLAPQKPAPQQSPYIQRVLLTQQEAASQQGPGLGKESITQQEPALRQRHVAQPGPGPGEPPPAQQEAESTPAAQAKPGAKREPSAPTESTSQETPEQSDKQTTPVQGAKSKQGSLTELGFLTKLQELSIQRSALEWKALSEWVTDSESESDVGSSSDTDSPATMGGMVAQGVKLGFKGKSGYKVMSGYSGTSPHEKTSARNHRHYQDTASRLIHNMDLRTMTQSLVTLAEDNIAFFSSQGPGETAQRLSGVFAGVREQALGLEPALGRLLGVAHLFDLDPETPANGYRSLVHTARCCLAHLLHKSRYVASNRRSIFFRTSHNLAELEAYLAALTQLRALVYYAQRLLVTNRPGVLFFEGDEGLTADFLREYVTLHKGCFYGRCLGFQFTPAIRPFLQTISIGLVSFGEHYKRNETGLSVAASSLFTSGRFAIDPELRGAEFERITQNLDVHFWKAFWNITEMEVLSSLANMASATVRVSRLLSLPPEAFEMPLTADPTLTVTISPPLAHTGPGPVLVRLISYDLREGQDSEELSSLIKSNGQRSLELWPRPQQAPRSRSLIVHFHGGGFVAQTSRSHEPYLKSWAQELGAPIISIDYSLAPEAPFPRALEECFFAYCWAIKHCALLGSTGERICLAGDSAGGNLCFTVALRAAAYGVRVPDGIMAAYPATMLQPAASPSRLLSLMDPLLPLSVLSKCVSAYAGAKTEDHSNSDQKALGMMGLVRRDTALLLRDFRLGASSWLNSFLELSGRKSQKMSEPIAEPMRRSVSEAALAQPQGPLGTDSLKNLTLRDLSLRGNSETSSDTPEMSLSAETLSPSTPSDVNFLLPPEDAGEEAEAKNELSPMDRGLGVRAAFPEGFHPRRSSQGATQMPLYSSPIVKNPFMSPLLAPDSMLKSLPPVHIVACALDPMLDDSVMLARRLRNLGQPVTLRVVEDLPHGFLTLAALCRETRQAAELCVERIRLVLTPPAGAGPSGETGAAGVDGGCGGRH
Experiment: Human Hormone-Sensitive Lipase (HSL) enzyme inhibition assay (colorimetric, DMPT substrate)
Assay type: biochemical
Details: human full length HSL-His6, 2,3-dimercapto-1-propanol tributyrate substrate, 37° C. 20 minutes, absorbance at 405 nm; read-out: HSL hum IC50
How it was run: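 Full-length human HSL with C-terminal His6, expressed in baculovirus-infected High 5 cells and Ni-NTA purified, was added (15 ug/ml stock) to 1.5 mM DMPT in 100 mM MOPS pH 7.2, 0.2 mg/ml fatty acid-free BSA containing compound. After 20 min at 37 °C, DTNB with SDS/Triton X-100 was added; A405 read after 15 min at RT.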

Compound | IC50
CC(C)OC[C@]1(O)CC[C@]2(CCN(c3ccc(O[C@@H](C)C(F)(F)F)nc3)C2=O)CC1 [Example 309, (5α,8α)-8-Hydroxy-8-isopropoxymethyl-2-[6-((S)-2,2,2-trifluoro-1-methyl-ethoxy)-pyridin-3-yl]-2-aza-spiro[4.5]decan-1-one] | 10 nM
CCOC[C@]1(O)CC[C@]2(CCN(c3ccc(O[C@H](C)C(F)(F)F)nc3)C2=O)CC1 [Example 311, (5α,8α)-8-Ethoxymethyl-8-hydroxy-2-[6-((R)-2,2,2-trifluoro-1-methyl-ethoxy)-pyridin-3-yl]-2-aza-spiro[4.5]decan-1-one] | 30 nM
CCCOC[C@]1(O)CC[C@]2(CCN(c3ccc(O[C@H](C)C(F)(F)F)nc3)C2=O)CC1 [Example 312, (5α,8α)-8-Hydroxy-8-propoxymethyl-2-[6-((R)-2,2,2-trifluoro-1-methyl-ethoxy)-pyridin-3-yl]-2-aza-spiro[4.5]decan-1-one] | 10 nM
C[C@@H](Oc1ccc(N2CC[C@]3(CC[C@](O)(COCC(F)F)CC3)C2=O)cn1)C(F)(F)F [Example 313, (5α,8β)-8-(2,2-Difluoro-ethoxymethyl)-8-hydroxy-2-[6-((R)-2,2,2-trifluoro-1-methyl-ethoxy)-pyridin-3-yl]-2-aza-spiro[4.5]decan-1-one] | 280 nM
C[C@@H](Oc1ccc(N2CC[C@]3(CC[C@@](O)(COCC(F)F)CC3)C2=O)cn1)C(F)(F)F [Example 314, (5α,8α)-8-(2,2-Difluoro-ethoxymethyl)-8-hydroxy-2-[6-((R)-2,2,2-trifluoro-1-methyl-ethoxy)-pyridin-3-yl]-2-aza-spiro[4.5]decan-1-one] | 20 nM
CC(C)OC[C@]1(O)CC[C@@]2(CCN(c3ccc(O[C@H](C)C(F)(F)F)nc3)C2=O)CC1 [Example 315, (5α,8β)-8-Hydroxy-8-isopropoxymethyl-2-[6-((R)-2,2,2-trifluoro-1-methyl-ethoxy)-pyridin-3-yl]-2-aza-spiro[4.5]decan-1-one] | 180 nM
CC(C)OC[C@]1(O)CC[C@]2(CCN(c3ccc(O[C@H](C)C(F)(F)F)nc3)C2=O)CC1 [Example 316, (5α,8α)-8-Hydroxy-8-isopropoxymethyl-2-[6-((R)-2,2,2-trifluoro-1-methyl-ethoxy)-pyridin-3-yl]-2-aza-spiro[4.5]decan-1-one] | 20 nM
CCC(CC)OC[C@]1(O)CC[C@]2(CCN(c3ccc(O[C@@H](C)C(F)(F)F)nc3)C2=O)CC1 [Example 328, (5α,8α)-8-(1-Ethyl-propoxymethyl)-8-hydroxy-2-[6-((S)-2,2,2-trifluoro-1-methyl-ethoxy)-pyridin-3-yl]-2-aza-spiro[4.5]decan-1-one] | 10 nM
COC[C@]1(O)CC[C@]2(CCN(c3ccc(OC(C)C)nc3)C2=O)CC1 [Example 329, (5α,8α)-8-Hydroxy-2-(6-isopropoxy-pyridin-3-yl)-8-methoxymethyl-2-aza-spiro[4.5]decan-1-one] | 170 nM
CCOC[C@]1(O)CC[C@]2(CCN(c3ccc(OC(C)C)nc3)C2=O)CC1 [Example 330, (5α,8α)-8-Ethoxymethyl-8-hydroxy-2-(6-isopropoxy-pyridin-3-yl)-2-aza-spiro[4.5]decan-1-one] | 40 nM

Results, then the molecule that gave them:

IC50 | Compound
10 nM | CC(C)OC[C@]1(O)CC[C@]2(CCN(c3ccc(O[C@@H](C)C(F)(F)F)cc3)C2=O)CC1 [Example 308, (5α,8α)-8-Hydroxy-8-isopropoxymethyl-2-[4-((S)-2,2,2-trifluoro-1-methyl-ethoxy)-phenyl]-2-aza-spiro[4.5]decan-1-one]
10 nM | CC(C)OC[C@]1(O)CC[C@]2(CCN(c3ccc(O[C@H](C)C(F)(F)F)cc3)C2=O)CC1 [Example 310, (5α,8α)-8-Hydroxy-8-isopropoxymethyl-2-[4-((R)-2,2,2-trifluoro-1-methyl-ethoxy)-phenyl]-2-aza-spiro[4.5]decan-1-one]
200 nM | CC(C)[S+]([O-])C[C@]1(O)CC[C@]2(CCN(c3ccc(OCC(F)(F)F)cc3)C2=O)CC1 (stereo partly drawn) [Example 317, (5α,8α)-8-Hydroxy-8-(propane-2-sulfinylmethyl)-2-[4-(2,2,2-trifluoro-ethoxy)-phenyl]-2-aza-spiro[4.5]decan-1-one]
30 nM | CC(C)S(=O)(=O)C[C@]1(O)CC[C@]2(CCN(c3ccc(OCC(F)(F)F)cc3)C2=O)CC1 [Example 318, (5α,8α)-8-Hydroxy-8-(propane-2-sulfonylmethyl)-2-[4-(2,2,2-trifluoro-ethoxy)-phenyl]-2-aza-spiro[4.5]decan-1-one]
10 nM | CC(C)(C)SC[C@]1(O)CC[C@]2(CCN(c3ccc(OCC(F)(F)F)cc3)C2=O)CC1 [Example 319, (5α,8α)-8-tert-Butylsulfanylmethyl-8-hydroxy-2-[4-(2,2,2-trifluoro-ethoxy)-phenyl]-2-aza-spiro[4.5]decan-1-one]
10 nM | CC(C)SC[C@]1(O)CC[C@]2(CCN(c3ccc(O[C@@H](C)C(F)(F)F)nc3)C2=O)CC1 [Example 320, (5α,8α)-8-Hydroxy-8-isopropylsulfanylmethyl-2-[6-((S)-2,2,2-trifluoro-1-methyl-ethoxy)-pyridin-3-yl]-2-aza-spiro[4.5]decan-1-one]
10 nM | CC(C)SC[C@]1(O)CC[C@]2(CCN(c3ccc(O[C@H](C)C(F)(F)F)nc3)C2=O)CC1 [Example 321, (5α,8α)-8-Hydroxy-8-isopropylsulfanylmethyl-2-[6-((R)-2,2,2-trifluoro-1-methyl-ethoxy)-pyridin-3-yl]-2-aza-spiro[4.5]decan-1-one]
20 nM | CC(C)(C)S(=O)(=O)C[C@]1(O)CC[C@]2(CCN(c3ccc(OCC(F)(F)F)cc3)C2=O)CC1 [Example 322, (5α,8α)-8-Hydroxy-8-(2-methyl-propane-2-sulfonylmethyl)-2-[4-(2,2,2-trifluoro-ethoxy)-phenyl]-2-aza-spiro[4.5]decan-1-one]
10 nM | CC(C)S(=O)(=O)C[C@]1(O)CC[C@]2(CCN(c3ccc(O[C@@H](C)C(F)(F)F)nc3)C2=O)CC1 [Example 323, (5α,8α)-8-Hydroxy-8-(propane-2-sulfonylmethyl)-2-[6-((S)-2,2,2-trifluoro-1-methyl-ethoxy)-pyridin-3-yl]-2-aza-spiro[4.5]decan-1-one]
20 nM | CC(C)S(=O)(=O)C[C@]1(O)CC[C@]2(CCN(c3ccc(O[C@H](C)C(F)(F)F)nc3)C2=O)CC1 [Example 324, (5α,8α)-8-Hydroxy-8-(propane-2-sulfonylmethyl)-2-[6-((R)-2,2,2-trifluoro-1-methyl-ethoxy)-pyridin-3-yl]-2-aza-spiro[4.5]decan-1-one]
10 nM | C[C@H](Oc1ccc(N2CC[C@]3(CC[C@@](O)(CS(=O)(=O)C(C)(C)C)CC3)C2=O)cn1)C(F)(F)F [Example 325, (5α,8α)-8-Hydroxy-8-(2-methyl-propane-2-sulfonylmethyl)-2-[6-((S)-2,2,2-trifluoro-1-methyl-ethoxy)pyridin-3-yl]-2-aza-spiro[4.5]decan-1-one]
10 nM | C[C@@H](Oc1ccc(N2CC[C@]3(CC[C@@](O)(CS(=O)(=O)C(C)(C)C)CC3)C2=O)cn1)C(F)(F)F [Example 326, (5α,8α)-8-Hydroxy-8-(2-methyl-propane-2-sulfonylmethyl)-2-[6-((R)-2,2,2-trifluoro-1-methyl-ethoxy)-pyridin-3-yl]-2-aza-spiro[4.5]decan-1-one]
30 nM | C[C@@H](Oc1ccc(N2CC[C@]3(CC[C@@](O)(COCC(F)(F)F)CC3)C2=O)cn1)C(F)(F)F [Example 327, (5α,8α)-8-Hydroxy-8-(2,2,2-trifluoro-ethoxymethyl)-2-[6-((R)-2,2,2-trifluoro-1-methyl-ethoxy)-pyridin-3-yl]-2-aza-spiro[4.5]decan-1-one]
12 nM | CCCS(=O)(=O)C[C@]1(O)CC[C@]2(CCN(c3ccc(C(C)(C)C)cc3)C2=O)CC1 [Example 331, (5α,8α)-2-(4-tert-Butyl-phenyl)-8-hydroxy-8-(propane-1-sulfonylmethyl)-2-aza-spiro[4.5]decan-1-one]
7 nM | CC(C)CS(=O)(=O)C[C@]1(O)CC[C@]2(CCN(c3ccc(C(C)(C)C)cc3)C2=O)CC1 [Example 332, (5α,8α)-2-(4-tert-Butyl-phenyl)-8-hydroxy-8-(2-methyl-propane-1-sulfonylmethyl)-2-aza-spiro[4.5]decan-1-one]
